Columns and labels:
HSD17B13 = HSD17B13 (Homo sapiens (Human), UniProt Q7Z5P4); assay: HSD17B13 enzymatic inhibition assay (150 nM or 50 nM HSD17B13); format: biochemical; settings: 50 nM HSD17B13; read-out: Inhibition of 50 nM of HSD17B13 IC50
HSD17B2 = HSD17B2 (Homo sapiens (Human), UniProt P37059); assay: HSD17B2 enzymatic blocking assay; format: biochemical; settings: 1.8 μM Estradiol, 650 μM NAD; read-out: Inhibition of HSD17B2 IC50
Description: To screen compounds of the disclosure for their ability to block HSD17B2 function, an enzymatic blocking assay was performed. For the assay, HSD17B2 activity was measured by detecting NADH formation from oxidation of Estradiol using a NADH Glo luminescence assay (Promega, #Cat. No. G9062). Compounds of the disclosure were evaluated in a dose titration assay where the compounds were titrated at 10-point dose curve using an Echo-555 liquid handling dispenser. HSD17B2 (SEQ ID NO: 3, expressed in mammalian cells) was added at a final concentration of 2 ng/μL in a buffer containing 50 mM Tris-HCl, pH 7.5, Pluronic F-127 0.05%, Tween20 0.01%, BSA 0.01% into a low volume white 384-well assay plate. Compounds were incubated with the enzyme for 15 min at 20° C. The assay reaction was then initiated by addition of 1.8 μM Estradiol substrate (Sigma, catalog #E2758-250MG, CAS: 50-28-2) and 650 μM NAD co-factor, and the reaction mixture was incubated for 45 min at 20° C. DMSO at a concentration of 0.5% was used as a negative control and a ‘no substrate’ control was used a positive control in the assay. Detection reagent was then added as per manufacturer's instructions, and the plate was subsequently incubated in the dark for 1 hour at room temperature, NADH generated was detected in the luminescence mode on the Envision Perkin Elmer plate reader. The IC50 values were determined using Dotmatics analysis software.

[1] = Microsome stability assay, human liver microsomes; format: in vitro ADME; settings: 1 μM compound, 0.5 mg/mL microsomal protein; for microsomal CLint at 1 h, 1 µM / half-life at 1 h, 1 µM / microsomal CLint at 1 μM / half-life at 1 μM: human, human liver microsomes, pooled, NADPH, 37° C.; for microsomal CLint at 1 h, 1 µM / microsomal CLint at 1 μM: read-out: Microsome Stability Human liver microsomes Cl; for half-life at 1 h, 1 µM / half-life at 1 μM: read-out: Microsome Stability Human liver microsomes T½
Method in brief: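 Compound at 1 μM incubated at 37° C with pooled human or mouse liver microsomes (0.5 mg/mL protein) plus NADPH regenerating system, sampled at 0–60 min; a 60-min no-NADPH incubation also included. Single replicate; LC/MS/MS disappearance from analyte/internal standard peak area ratios, without standard curve.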

[2] = Microsome stability assay, mouse liver microsomes; format: in vitro ADME; settings: 1 μM compound, 0.5 mg/mL microsomal protein
Description: Compounds of the disclosure were screened in microsome stability assays. For the screen, test compounds were incubated at 37° C. with either human liver microsomes (Corning; #452117) or mouse liver microsomes (XenoTech; #M1000), pooled from multiple donors, at 1 μM in the presence of a NADPH regenerating system at 0.5 mg/mL microsomal protein. Positive controls included in the assay were testosterone (3A4 substrate), propafenone (2D6) and diclofenac (2C9). Samples were removed at different time points (0, 5, 10, 20, 30 and 60 minutes) and immediately mixed with cold acetonitrile containing internal standard (IS, 200 ng/mL tolbutamide and 200 ng/mL labetalol). Test compounds incubated with microsomes for 60 minutes without the NADPH regenerating system was also included. A single point for each test condition (n=1) was obtained, and samples were analyzed by LC/MS/MS. Disappearance of the test compound was assessed based on peak area ratios of analyte/IS (no standard curve).

HSD17B1 = HSD17B1 (Homo sapiens (Human), UniProt P14061); assay: HSD17B1 enzymatic blocking assay; format: biochemical; settings: 25 μM Estradiol, 500 μM NAD; read-out: Inhibition of HSD17B1 IC50
Sequence of HSD17B1 (P14061 other isoform, or with tags, fused parts or gaps): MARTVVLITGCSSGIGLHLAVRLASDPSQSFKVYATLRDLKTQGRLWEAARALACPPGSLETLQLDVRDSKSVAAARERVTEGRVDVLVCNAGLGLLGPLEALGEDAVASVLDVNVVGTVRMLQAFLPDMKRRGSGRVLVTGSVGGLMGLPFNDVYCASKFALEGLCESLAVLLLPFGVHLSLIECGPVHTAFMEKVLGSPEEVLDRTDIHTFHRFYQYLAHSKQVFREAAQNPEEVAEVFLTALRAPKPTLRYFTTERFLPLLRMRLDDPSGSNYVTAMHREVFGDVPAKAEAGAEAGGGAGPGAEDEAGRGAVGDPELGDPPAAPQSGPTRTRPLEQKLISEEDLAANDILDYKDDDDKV
Description: To screen compounds of the disclosure for their ability to block HSD17B1 function, an enzymatic blocking assay was performed. For the assay, HSD17B1 activity was measured by detecting NADH formation from oxidation of Estradiol using a NADH Glo luminescence assay (Promega, #Cat. No. G9062). […] Compounds were incubated with the enzyme for 30 minutes at room temperature. […] DMSO at a concentration of 0.5% was used as a negative control and a ‘no substrate’ control was used a positive control in the assay. Detection reagent was then added as per manufacturer's instructions, and the plate was subsequently incubated in the dark for 1 hour at room temperature, NADH generated was detected in the luminescence mode on the Envision Perkin Elmer plate reader. The IC50 values were determined using Dotmatics analysis software.

Sequence of HSD17B13 (Q7Z5P4 other isoform, or with tags, fused parts or gaps): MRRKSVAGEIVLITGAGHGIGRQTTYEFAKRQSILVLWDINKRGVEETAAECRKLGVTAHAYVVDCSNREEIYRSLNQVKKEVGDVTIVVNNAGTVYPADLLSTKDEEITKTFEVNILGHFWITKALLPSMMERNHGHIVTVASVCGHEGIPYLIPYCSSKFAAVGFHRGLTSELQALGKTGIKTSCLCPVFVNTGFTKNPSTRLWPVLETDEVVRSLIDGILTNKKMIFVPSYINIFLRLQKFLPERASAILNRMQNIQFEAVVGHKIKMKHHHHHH
Sequence of HSD17B2 (P37059 other isoform, or with tags, fused parts or gaps): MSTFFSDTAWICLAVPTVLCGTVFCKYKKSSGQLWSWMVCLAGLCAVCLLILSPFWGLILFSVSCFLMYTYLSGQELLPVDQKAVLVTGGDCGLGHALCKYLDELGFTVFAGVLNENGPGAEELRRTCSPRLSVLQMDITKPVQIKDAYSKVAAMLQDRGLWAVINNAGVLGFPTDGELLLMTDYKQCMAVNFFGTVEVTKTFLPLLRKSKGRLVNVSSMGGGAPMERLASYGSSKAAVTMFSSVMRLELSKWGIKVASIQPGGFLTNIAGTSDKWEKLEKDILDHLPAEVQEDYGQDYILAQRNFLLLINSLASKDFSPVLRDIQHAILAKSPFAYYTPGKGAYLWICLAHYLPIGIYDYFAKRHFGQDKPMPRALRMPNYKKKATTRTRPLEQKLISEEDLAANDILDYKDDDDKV

Structure (SMILES)	IC50 (HSD17B13)	IC50 (HSD17B2)	Microsome Stability Human liver microsomes % Remaining @60 min [1]	microsomal CLint at 1 h, 1 µM [1]	half-life at 1 h, 1 µM [1]	Microsome Stability Mouse liver microsomes % Remaining @60 min ([2]; 60 min)	microsomal CLint at 1 h, 1 µM ([2]; mouse, mouse liver microsomes, pooled, NADPH, 37° C., read-out: Microsome Stability Mouse liver microsomes Cl)	half-life at 1 h, 1 µM ([2]; mouse, mouse liver microsomes, pooled, NADPH, 37° C., read-out: Microsome Stability Mouse liver microsomes T½)	microsomal CLint at 1 μM [1]	half-life at 1 μM [1]	IC50 (HSD17B1)
CCc1ccc(C(NC(=O)c2ccc(C(F)(F)F)[nH]c2=O)c2ccccc2)cc1 (stereo not drawn) [Compound 4A, N-((4-ethylphenyl)(phenyl)methyl)-2-oxo-6-(trifluoromethyl)-1,2-dihydropyridine-3-carboxamide]	0.55 µM	11.7 µM	1.12%	156 µL/min/mg	8.86 min	–	–	–	–	–	–
O=C(NC(c1ccccc1)c1ccc(CC(F)(F)F)cc1)c1ccc(C(F)(F)F)[nH]c1=O (stereo not drawn) [Compound 12, 2-oxo-N-(phenyl(4-(2,2,2-trifluoroethyl)phenyl)methyl)-6-(trifluoromethyl)-1,2-dihydropyridine-3-carboxamide]	0.39 µM	15.6 µM	84.70%	–	–	56.90%	18.6 µL/min/mg	74.5 min	< 9.6 µL/min/mg	> 145 min	–
N#Cc1ccc(C(NC(=O)c2ccc(C(F)(F)F)[nH]c2=O)c2ccccc2)cc1 (stereo not drawn) [Compound 12A, N-((4-cyanophenyl)(phenyl)methyl)-2-oxo-6-(trifluoromethyl)-1,2-dihydropyridine-3-carboxamide]	0.56 µM	23.7 µM	–	–	–	–	–	–	–	–	> 30 µM
O=C(NC(c1ccc(C(F)(F)F)cc1)c1ccc(C(F)(F)F)cc1)c1ccc(C(F)(F)F)[nH]c1=O [Compound 14, N-(bis(4-(trifluoromethyl)phenyl)methyl)-2-oxo-6-(trifluoromethyl)-1,2-dihydropyridine-3-carboxamide]	2.81 µM	14.2 µM	100.00%	–	–	–	–	–	< 9.6 µL/min/mg	> 145 min	–
COc1ccc(C(NC(=O)c2ccc(C(F)(F)F)[nH]c2=O)c2ccc(OC)cc2)cc1 [Compound 24, N-(bis(4-methoxyphenyl)methyl)-2-oxo-6-(trifluoromethyl)-1,2-dihydropyridine-3-carboxamide]	0.6 µM	20.6 µM	2.00%	131 µL/min/mg	10.6 min	–	–	–	–	–	–
O=C(NC(c1ccccc1)c1ccc(C(F)(F)F)cc1)c1ccc(C(F)(F)F)[nH]c1=O (stereo not drawn) [Compound 28, N-(phenyl(4-(trifluoromethyl)phenyl)methyl)-2-oxo-6-(trifluoromethyl)-1,2-dihydropyridine-3-carboxamide]	1.3 µM	12.6 µM	94.00%	–	–	–	–	–	< 9.6 µL/min/mg	> 145 min	–
CCc1cc(C(=O)NC2c3ccc(C)cc3Oc3cc(C)ccc32)c(=O)[nH]c1C(F)(F)F [Compound 176, N-(3,6-dimethyl-9H-xanthen-9-yl)-5-ethyl-2-oxo-6-(trifluoromethyl)-1,2-dihydropyridine-3-carboxamide]	0.02 µM	28.3 µM	–	–	–	–	–	–	–	–	6.43 µM
CCCc1cc(C(=O)NC2c3ccc(Cl)cc3Oc3cc(Cl)ccc32)c(=O)[nH]c1C(F)(F)F [Compound 178, N-(3,6-dichloro-9H-xanthen-9-yl)-2-oxo-5-propyl-6-(trifluoromethyl)-1,2-dihydropyridine-3-carboxamide]	0.06 µM	64 µM	–	–	–	–	–	–	–	–	28.7 µM
C=Cc1cc(C(=O)NC2c3ccc(C)cc3Oc3cc(C)ccc32)c(=O)[nH]c1C(F)(F)F [Compound 182, N-(3,6-dimethyl-9H-xanthen-9-yl)-2-oxo-6-(trifluoromethyl)-5-vinyl-1,2-dihydropyridine-3-carboxamide]	0.02 µM	10.3 µM	–	–	–	–	–	–	–	–	5.16 µM

Next, values leading:

IC50 (HSD17B13)	IC50 (HSD17B2)	Microsome Stability Human liver microsomes % Remaining @60 min [1]	microsomal CLint at 1 h, 1 µM [1]	half-life at 1 h, 1 µM [1]	Microsome Stability Mouse liver microsomes % Remaining @60 min ([2]; 60 min)	microsomal CLint at 1 h, 1 µM ([2]; mouse, mouse liver microsomes, pooled, NADPH, 37° C., read-out: Microsome Stability Mouse liver microsomes Cl)	half-life at 1 h, 1 µM ([2]; mouse, mouse liver microsomes, pooled, NADPH, 37° C., read-out: Microsome Stability Mouse liver microsomes T½)	microsomal CLint at 1 μM [1]	half-life at 1 μM [1]	IC50 (HSD17B1)	Structure (SMILES)
0.53 µM	14.5 µM	1.00%	176 µL/min/mg	7.87 min	–	–	–	–	–	–	O=C(NC1c2ccccc2Oc2ccccc21)c1ccc(C(F)(F)F)[nH]c1=O [Compound 1A, 2-oxo-6-(trifluoromethyl)-N-(9H-xanthen-9-yl)-1,2-dihydropyridine-3-carboxamide]
1.91 µM	33.6 µM	49.80%	20.2 µL/min/mg	68.6 min	–	–	–	–	–	–	O=C(NC(c1ccccc1)c1ccc(O)cc1)c1ccc(C(F)(F)F)[nH]c1=O (stereo not drawn) [Compound 19, N-((4-hydroxyphenyl)(phenyl)methyl)-2-oxo-6-(trifluoromethyl)-1,2-dihydropyridine-3-carboxamide]
0.99 µM	13.2 µM	8.05%	88.6 µL/min/mg	15.6 min	–	–	–	–	–	–	O=C(NC(Cc1ccccc1)c1ccc(Cl)cc1)c1ccc(C(F)(F)F)[nH]c1=O (stereo not drawn) [Compound 19A, N-(1-(4-chlorophenyl)-2-phenylethyl)-2-oxo-6-(trifluoromethyl)-1,2-dihydropyridine-3-carboxamide]
1.2 µM	22.7 µM	16.00%	62.4 µL/min/mg	22.2 min	–	–	–	–	–	–	COc1ccc(C(NC(=O)c2ccc(C(F)(F)F)[nH]c2=O)c2ccccc2)cc1 (stereo not drawn) [Compound 26, N-((4-methoxyphenyl)(phenyl)methyl)-2-oxo-6-(trifluoromethyl)-1,2-dihydropyridine-3-carboxamide]
0.49 µM	6.59 µM	31.30%	39.8 µL/min/mg	34.8 min	–	–	–	–	–	–	Cc1ccc2c(c1)-c1cc(C)ccc1C2NC(=O)c1ccc(C(F)(F)F)[nH]c1=O [Compound 43, N-(3,6-dimethyl-9H-fluoren-9-yl)-2-oxo-6-(trifluoromethyl)-1,2-dihydropyridine-3-carboxamide]
1.07 µM	38.1 µM	–	–	–	–	–	–	–	–	–	COc1ccc2c(c1)-c1cc(OC)ccc1C2NC(=O)c1ccc(C(F)(F)F)[nH]c1=O [Compound 46, N-(3,6-dimethoxy-9H-fluoren-9-yl)-2-oxo-6-(trifluoromethyl)-1,2-dihydropyridine-3-carboxamide]
3.68 µM	> 100 µM	–	–	–	–	–	–	–	–	–	O=C(NC1CCc2ccccc21)c1ccc(C(F)(F)F)[nH]c1=O (stereo not drawn) [Compound 63, N-(2,3-dihydro-1H-inden-1-yl)-2-oxo-6-(trifluoromethyl)-1,2-dihydropyridine-3-carboxamide]
0.27 µM	8.22 µM	–	–	–	–	–	–	–	–	9.16 µM	O=C(NC1c2ccccc2Oc2ccc(C3CC3)cc21)c1ccc(C(F)(F)F)[nH]c1=O (stereo not drawn) [Compound 161, N-(2-cyclopropyl-9H-xanthen-9-yl)-2-oxo-6-(trifluoromethyl)-1,2-dihydropyridine-3-carboxamide]
0.04 µM	14.6 µM	–	–	–	–	–	–	–	–	4.21 µM	Cc1ccc2c(c1)Oc1cc(C)ccc1C2NC(=O)c1cc(-c2ccccc2)c(C(F)(F)F)[nH]c1=O [Compound 177, N-(3,6-dimethyl-9H-xanthen-9-yl)-2-oxo-5-phenyl-6-(trifluoromethyl)-1,2-dihydropyridine-3-carboxamide]
